{"source": "patent US20060014709A1", "about": "“Drug or cosmetic” (priority 2002, published 2006)", "system": "human peripheral blood T lymphocytes / cytotoxic macrophages", "assay_type": "cell-based", "text": "Another embodiment of the method for screening a compound which can prevent, mitigate or treat renal glomerular lesions, lesions of pancreatic islets of Langerhans or epidermal lesions include a method for screening a compound in the presence of which a number of produced cytotoxic macrophages is decreased, comprising the steps of (i) inducing cytotoxic macrophages by cultivating human peripheral blood mononuclear cells in RPMI 1640 medium in the presence of lipopolysaccharide and human AB type serum; (ii) at the same time, inducing unfractionated T lymphocytes by cultivating human peripheral blood unfractionated T lymphocytes with or without lipopolysaccharide in the presence of the test compound; (iii) bringing the cytotoxic macrophages obtained in (i) into contact with monolayered autologous erythrocytes in the presence of the unfractionated T lymphocytes obtained in (ii), and measuring a number of produced cytotoxic macrophages; and (iv) comparing with the number of generated cytotoxic macrophages in the absence of the test compound (for convenience, referred to as screening method C).\n(a) Induction of cytotoxic macrophages is described below. To 2×10^6PBMC floated on RPMI1640 medium containing human normal serum of type AB, 2 mM of L-glutamine and 5 μg/mL of gentamicin, LPS is added so as to make a concentration 80 μg/mL, and the PBMC is cultivated for 6 days at 37° C. under 5% CO2-95% air to induce cytotoxic macrophages. The PBMC is obtained similarly as in the screening method A. The induced cytotoxic macrophages are recovered from the medium. In the recovering, a known method may be used, including a method of collecting adhered materials with a rubber-policeman (rubber spatula). Then, the recovered cytotoxic macrophages may be washed. In washing, a Hanks solution with about 5 μg/mL of gentamicin is preferably used.\n(b) Induction of unfractionated T lymphocytes is described below. First, human peripheral blood unfractionated T lymphocytes is separated as described below. As described in the screening method A, to a PBMC fraction separated by a specific gravity centrifugal method was added sheep erythrocytes treated with neuraminidase and reacted for 20 minutes at 37° C. This solution is gently added to a tube in which Percolls of discontinuous specific gravities are layered, and centrifuged at 400×g for 20 minutes at room temperature. In the layered Percolls of discontinuous specific gravities, fractions of rosetted T lymphocytes and monocytes floating on a layer of not less than d=1.091 are collected respectively. To the fraction of rosetted T lymphocytes is added ammonium chloride to hemolyze the sheep erythrocyte and a fraction of T lymphocytes is obtained. The fraction of monocytes obtained at the same time is washed. […]", "note": "Where two headings read alike, the source gives them in different places.", "data": [{"compound": "O=C1CC[C@@](Sc2ccc(Cl)cc2)(C(=O)OCc2ccccc2)O1", "note": "(stereo in doubt) [compound (III-1), 2-(4-chlorophenyl)thio-5-oxo-2-tetrahydrofurancarboxylic acid benzyl ester]", "values": [{"measurement": "induction of regulatory CD2^−CD4^+ T lymphocytes (in words)", "value": "induces regulatory CD2^−CD4^+ T lymphocytes"}, {"measurement": "Inhibition rate (%) of SPFC positive cells versus T lymphocytes treated with solvent", "setting": "T lymphocytes treated with 0.1 μg/ml of compound", "value": 69.2, "unit": "%"}, {"measurement": "Inhibition rate (%) of SPFC positive cells versus T lymphocytes treated with solvent", "setting": "T lymphocytes treated with 1 μg/ml of compound", "value": 53.8, "unit": "%"}, {"measurement": "Inhibition rate (%) of SPFC positive cells versus T lymphocytes treated with solvent", "setting": "T lymphocytes treated with 10 μg/ml of compound", "value": 92.3, "unit": "%"}]}]}
